Test results taken from patent publication US20250368624A1, “M24B AMINOPEPTIDASE INHIBITORS FOR CARD8 INFLAMMASOME ACTIVATION” (Memorial Sloan-Kettering Cancer Center, priority 2022, published 2025).

Columns and labels:
[1] = test system: MV4;11 CASP1-/- cells; assay: CellTiter-Glo cell viability, CASP1-/- MV4;11 cells; format: cell-based; details: 24 h, CTG; for CASP1-independent cell death: WT and CASP1-/- MV4;11 cells
Description: Cloning. CASP1^−/− MV4;11 cells^12; CARD8^−/− MV4;11, THP-1, OCI-AML2 cells^14; DPP8/9^−/− THP-1^12; PEPD^−/−, XPNPEP1^−/−, PEPD XPNPEP1^−/− THP-1 cells were generated. Plasmids for CARD8 variants, CASP1, GSDMD, dTAG-CARD8^ZUC were cloned as described previously (Hollingsworth et al., 2021; Johnson et al., 2018; Sharif et al., 2021).
(§1) CellTiter-Glo cell viability and CytoTox-Fluor cell death assays. Cells were plated (2,000 cells per well) in white, 384-well clear-bottom plates (Corning) using an EL406 Microplate Washer/Dispenser (BioTek) in 25 μL final volume of medium. To the cell plates were added compounds at different concentrations using a pintool (CyBio) and the plates were allowed to incubate in the incubator. After incubation for indicated times, CytoTox-Fluor reagent (Promega, G9262) was added according to the manufacturer's protocol. The assay plates were then incubated for another 30 min before fluorescence was recorded using a Cytation 5 Cell Imaging Multi-Mode Reader (BioTek). Next, CellTiter-Glo reagent (Promega, G7573) was subsequently added to the assay plates following the manufacturer's protocol. Assay plates were shaken on an orbital shaker for 2 min and incubated at 25° C. for 10 min. Luminescence was then read using a Cytation 5 Cell Imaging Multi-Mode Reader (BioTek).

[2] = molecular target: XPNPEP1 (Homo sapiens (Human), UniProt Q9NQW7); assay: XPNPEP1 substrate assay (H-Lys(abz)-Pro-Pro-pNA); format: biochemical; details: for IC50: XPNPEP1 3.5 nM, substrate 100 μM, 60 mins
XPNPEP1, sequence (Q9NQW7 whole entry): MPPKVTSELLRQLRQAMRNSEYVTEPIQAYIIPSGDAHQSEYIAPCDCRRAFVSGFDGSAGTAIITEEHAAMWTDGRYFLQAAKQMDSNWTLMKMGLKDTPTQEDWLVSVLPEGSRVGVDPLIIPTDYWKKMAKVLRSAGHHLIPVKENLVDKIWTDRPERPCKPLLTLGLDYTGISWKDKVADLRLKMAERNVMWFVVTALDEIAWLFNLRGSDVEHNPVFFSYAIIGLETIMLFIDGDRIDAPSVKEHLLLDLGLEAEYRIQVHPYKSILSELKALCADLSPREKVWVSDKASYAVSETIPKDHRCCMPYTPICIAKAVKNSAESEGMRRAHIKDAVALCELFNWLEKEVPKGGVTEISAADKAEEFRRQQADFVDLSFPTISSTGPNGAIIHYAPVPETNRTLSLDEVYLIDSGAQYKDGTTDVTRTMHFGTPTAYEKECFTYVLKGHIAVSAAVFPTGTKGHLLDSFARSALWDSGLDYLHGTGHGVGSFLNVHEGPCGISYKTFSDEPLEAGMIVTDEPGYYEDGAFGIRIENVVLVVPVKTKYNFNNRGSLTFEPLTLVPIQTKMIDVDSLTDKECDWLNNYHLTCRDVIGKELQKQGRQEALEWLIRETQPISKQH
Description: Protein purification. Human prolidase (PEPD) was generated and purified. XPNPEP1 in pET15-b containing a 6× His tag was expressed in E. coli Rosetta DE3 cells. Cells were induced with IPTG for 16 h at 37° C., pelleted and lysed in buffer A (20 mM Tris-HCl (pH 7.9), 500 mM NaCl, and 10% (v/v) glycerol) by sonication. Affinity purification chromatography was performed using TALON resin and according to previously published protocols (Li et al., 2008).
(§2) Substrate assays. For the PEPD assay, a solution of substrate (Ala-Pro) was prepared in DMSO. 24 μL of 50 nM recombinant human PEPD were added to a 384-well, black, clear-bottom plate (Corning) with 1 μL dipeptide Ala-Pro (final conc. 40 μM). Alanine liberated was measured as increasing fluorescence signal (Resorufin, Ex/Em: 535/587 nm) recorded at 25° C. using an L-alanine assay kit (Abcam, ab83394) at 25° C. according to manufacturer's instructions. For the AMC reporter assays, experiments were performed with cell lysates. 5 μL solution of substrate (2.5 mM Ala-AMC) was added the mixture of 10 μL HEK293T cell lysates (2.5 mg/ml) and 10 μL of indicated compounds in a 384-well, black, clear-bottom plate (Corning) to initiate the reaction. Substrate cleavage was measured as increasing fluorescence signal (Ex/Em: 380/460 nm) recorded at 25° C. for 20 mins. For XPNPEP1 enzymes (XPNPEP1 3.5 nM) were plated on a black 384-well clear bottom plate and treated with the indicated doses of compounds. H-Lys(abz)-Pro-Pro-pNA substrate was added to a final concentration of 100 μM, and fluorescence was monitored (Ex/Em: 320/410) for 60 mins.

[3] = test system: MV4;11 WT cells; assay: CellTiter-Glo cell viability, WT MV4;11 cells; format: cell-based; details: for IC50 / cytotoxicity to MV4;11 cells (in words): 24 h, CTG
Description: as §1

[4] = molecular target: recombinant human PEPD (Homo sapiens (Human), UniProt P12955); assay: PEPD substrate assay (Ala-Pro cleavage, L-alanine assay kit); format: biochemical; details: for IC50: 50 nM recombinant human PEPD, Ala-Pro 40 μM, 25° C.
recombinant human PEPD, sequence (P12955 whole entry): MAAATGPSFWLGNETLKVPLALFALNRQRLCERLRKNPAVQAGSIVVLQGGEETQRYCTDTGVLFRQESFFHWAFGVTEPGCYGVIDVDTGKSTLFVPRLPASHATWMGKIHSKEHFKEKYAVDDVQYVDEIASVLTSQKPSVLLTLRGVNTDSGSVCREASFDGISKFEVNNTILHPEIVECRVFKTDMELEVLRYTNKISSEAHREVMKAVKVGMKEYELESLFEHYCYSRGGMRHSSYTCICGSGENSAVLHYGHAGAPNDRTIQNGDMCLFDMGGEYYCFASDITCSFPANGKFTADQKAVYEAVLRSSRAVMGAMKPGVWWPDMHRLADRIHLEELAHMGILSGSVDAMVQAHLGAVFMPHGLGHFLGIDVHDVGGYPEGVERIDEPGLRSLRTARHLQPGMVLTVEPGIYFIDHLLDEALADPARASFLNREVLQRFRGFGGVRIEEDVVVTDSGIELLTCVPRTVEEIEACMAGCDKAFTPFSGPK
Description: Protein purification. Human prolidase (PEPD) was generated and purified. XPNPEP1 in pET15-b containing a 6× His tag was expressed in E. coli Rosetta DE3 cells.
as §2, with “Alanine liberated was measured as increasing fluorescence signal (Resorufin, Ex/Em: 535/587 nm) recorded at 25° C. using an L-alanine assay kit (Abcam, ab83394) at 25° C. according to manufacturer's instructions.” left out, “For XPNPEP1 enzymes (XPNPEP1 3.5 nM) were plated on a black 384-well clear bottom plate and treated with the indicated doses of compounds.” left out

[5] = Stability in cell culture supernatants; format: in vitro ADME

Row | Compound | IC50 [2] [µM] | IC50 [4] [µM] | cytotoxicity to MV4;11 cells (in words) [3] | other results
1 | C[C@H](NC(=O)[C@@H]1CCCN1C(=O)[C@@H]1CCCN1C(=O)[C@@H](O)[C@H](N)Cc1ccccc1)C(N)=O [Apstatin, apstatin, reference compound] | 18 |  | not cytotoxic at all | IC50 [1]: > 20 µM; IC50 [3]: > 20 µM
2 | COC(=O)[C@@H]1C[C@H](O)CN1C(=O)[C@@H](O)[C@H](N)CC(C)C [CQ39, Methyl (2S,4S)-1-((2S,3R)-3-amino-2-hydroxy-5-methylhexanoyl)-4-hydroxypyrrolidine-2-carboxylate] | 190 | > 100 |  | overall activity (PEPD/XPNPEP1 inhibition and cytotoxicity, Table 6 and FIG. 2), in words [3]: completely inactive
3 | COC(=O)[C@H](C)NC(=O)[C@@H]1CCCN1C(=O)[C@@H]1CCCN1C(=O)[C@@H](O)[C@H](N)CC(C)C [CQ50, Methyl ((2S,3R)-3-amino-2-hydroxy-5-methylhexanoyl)-L-prolyl-L-prolyl-L-alaninate] | 8.1 | 11 |  | IC50 ([1]; Homo sapiens, MV4-11): > 100 µM; IC50 ([3]; Homo sapiens, MV4-11): 35 µM
4 | COC(=O)[C@H](Cc1ccccc1)NC(=O)[C@@H]1CCCN1C(=O)[C@@H](O)[C@H](N)CC(C)C [CQ79, Methyl ((2S,3R)-3-amino-2-hydroxy-5-methylhexanoyl)-L-prolyl-L-phenylalaninate] | 48 | 0.72 |  | IC50 ([1]; Homo sapiens, MV4-11): > 20 µM; IC50 ([3]; Homo sapiens, MV4-11): 0.66 µM
5 | CC[C@H](C)[C@H](NC(=O)[C@@H]1CCCN1C(=O)[C@@H](O)[C@H](N)CC(C)C)C(=O)OC [CQ81, Methyl ((2S,3R)-3-amino-2-hydroxy-5-methylhexanoyl)-L-prolyl-L-isoleucinate] | 23 | 0.84 |  | IC50 ([1]; Homo sapiens, MV4-11): > 20 µM; IC50 ([3]; Homo sapiens, MV4-11): 0.6 µM
6 | CC(C)C[C@@H](N)[C@H](O)C(=O)N1CCC[C@H]1C(=O)OC1CCCC1 [CQ94, Cyclopentyl ((2S,3R)-3-amino-2-hydroxy-5-methylhexanoyl)-L-prolinate] |  |  | slightly more toxic | XPNPEP1 inhibition (in words) [2]: inhibited PEPD and XPNPEP1 inhibitors similarly; PEPD inhibition (in words) [4]: inhibited PEPD and XPNPEP1 inhibitors similarly
7 | CC(C)C[C@H](NC(=O)[C@@H]1CCCN1C(=O)[C@@H](O)[C@H](N)CC(C)C)C(=O)NCCc1ccccc1 [CQ116, (S)-1-((2S,3R)-3-amino-2-hydroxy-5-methylhexanoyl)-N—((S)-4-methyl-1-oxo-1-(phenethylamino)pentan-2-yl)pyrrolidine-2-carboxamide] | 3.4 | 5.7 |  | stability in cell culture supernatants (in words) [5]: completely stable
8 | COC(=O)[C@H](CC(C)C)NC(=O)[C@@H](O)[C@H](N)Cc1ccccc1 [MeBs, bestatin methyl ester, reference compound] |  |  |  | CASP1-independent cell death [1]: CASP1-independent cell death

The next lines start with results.

Row | IC50 [2] [µM] | IC50 [4] [µM] | Compound | cytotoxicity to MV4;11 cells (in words) [3] | other results
9 | 33 | 12 | COC(=O)[C@@H]1CCCN1C(=O)[C@@H](O)[C@H](N)C12CC3CC(CC(C3)C1)C2 [CQ47, Methyl ((2S,3R)-3-(adamantan-1-yl)-3-amino-2-hydroxypropanoyl)-L-prolinate] | almost completely inactive | 
10 | 53 | 0.28 | CC(C)C[C@@H](N)[C@H](O)C(=O)N1CCC[C@H]1C(N)=O [CQ49, (S)-1-((2S,3R)-3-amino-2-hydroxy-5-methylhexanoyl)pyrrolidine-2-carboxamide] |  | overall activity (PEPD/XPNPEP1 inhibition and cytotoxicity, Table 6 and FIG. 2), in words [3]: retained similar PEPD/XPNPEP1 inhibition and cytotoxicity as CQ31
11 | 57 | 51 | COC(=O)[C@H](CC(C)C)NC(=O)[C@@H](O)[C@H](N)CC(C)C [CQ52, Methyl ((2S,3R)-3-amino-2-hydroxy-5-methylhexanoyl)-L-leucinate] |  | CASP1-independent cell death [1]: triggered CASP1-independent cell death; XPNPEP1 inhibition (in words) [2]: very weak PEPD and XPNPEP1 inhibitors; PEPD inhibition (in words) [4]: very weak PEPD and XPNPEP1 inhibitors
12 | 12 | > 100 | CC(C)C[C@@H](N)[C@H](O)C(=O)N1CCC[C@H]1CNS(C)(=O)=O [CQ53, N—(((S)-1-((2S,3R)-3-amino-2-hydroxy-5-methylhexanoyl)pyrrolidin-2-yl)methyl)methanesulfon-amide] | inactive in cells | 
13 | 303 | 1.6 | CONC(=O)[C@@H]1CCCN1C(=O)[C@@H](O)[C@H](N)CC(C)C [CQ55, (S)-1-((2S,3R)-3-amino-2-hydroxy-5-methylhexanoyl)-N-methoxypyrrolidine-2-carboxamide] | inactive in cells | 
14 | 66 | 4.2 | COC(=O)[C@@H]1CCCN1C(=O)[C@@H](O)[C@H](N)C1CC1 [CQ62, Methyl ((2S,3R)-3-amino-3-cyclopropyl-2-hydroxypropanoyl)-L-prolinate] | almost completely inactive | 
15 | 96 | > 100 | COC(=O)[C@H](Cc1ccccc1)NC(=O)[C@@H](O)[C@H](N)CC(C)C [CQ72, Methyl ((2S,3R)-3-amino-2-hydroxy-5-methylhexanoyl)-L-phenylalaninate] |  | CASP1-independent cell death [1]: triggered CASP1-independent cell death; XPNPEP1 inhibition (in words) [2]: very weak PEPD and XPNPEP1 inhibitors; PEPD inhibition (in words) [4]: very weak PEPD and XPNPEP1 inhibitors
16 | 115 | 0.3 | COC(=O)[C@@H]1CCCN1C(=O)[C@@H](O)[C@H](N)CCCCO [CQ75] | lost cytotoxicity | PEPD inhibition (in words) [4]: retained PEPD inhibition
17 | 38 | > 100 | CC(C)C[C@@H](N)[C@H](O)C(=O)N1CCCC1 [CQ76, (2S,3R)-3-amino-2-hydroxy-5-methyl-1-(pyrrolidin-1-yl)hexan-1-one] |  | overall activity (PEPD/XPNPEP1 inhibition and cytotoxicity, Table 6 and FIG. 2), in words [3]: abrogated all activity
18 | 140 | 0.29 | CC(C)CCNC(=O)[C@@H]1CCCN1C(=O)[C@@H](O)[C@H](N)CC(C)C [CQ95, (S)-1-((2S,3R)-3-amino-2-hydroxy-5-methylhexanoyl)-N-isopentylpyrrolidine-2-carboxamide] |  | overall activity (PEPD/XPNPEP1 inhibition and cytotoxicity, Table 6 and FIG. 2), in words [3]: retained similar PEPD/XPNPEP1 inhibition and cytotoxicity as CQ31
19 | 67 | 6.2 | CC(C)C[C@@H](N)[C@H](O)C(=O)N1CCC[C@H]1c1nnn[nH]1 [CQ99, (2S,3R)-1-((S)-2-(1H-tetrazol-5-yl)pyrrolidin-1-yl)-3-amino-2-hydroxy-5-methylhexan-1-one] | inactive in cells | 
